Results as given in PubChem BioAssay AID330 (DTP/NCI, 2004).
Values joined by “and” are separate entries in the source; they are usually repeats but may differ in a detail not shown here. Equal values may be shown once. Toxic doses and inconclusive results are not listed. Rule for the calls: active = survival T/C of 150% or more; inactive = T/C below 125% in these data.

Tested on: P388 leukemia ip, CD2F1 mice, survival T/C
Assay: NCI In Vivo Anticancer Drug Screen. Data for tumor model P388 Leukemia (intraperitoneal) in CD2F1 (CDF1) mice
Settings: endpoint: median survival time, higher = longer survival
Outline: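 Mice carrying the transplanted tumor received test compound or vehicle. Survival was recorded in each group, and the value is the treated-group measurement divided by that of the vehicle-treated control group.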

[1] = dose: 50.0 mg/kg/injection, schedule: Q01DX005 (ip), vehicle: Klucel (hydroxypropylcellulose) (HPC)
[2] = dose: 100.0 mg/kg/injection, schedule: Q01DX005 (ip), vehicle: Klucel (hydroxypropylcellulose) (HPC)
[3] = dose: 200.0 mg/kg/injection, schedule: Q01DX005 (ip), vehicle: Klucel (hydroxypropylcellulose) (HPC)
[4] = dose: 50.0 mg/kg/injection, schedule: Q01DX005 (ip), vehicle: saline with Tween-80
[5] = dose: 100.0 mg/kg/injection, schedule: Q01DX005 (ip), vehicle: saline with Tween-80
[6] = dose: 200.0 mg/kg/injection, schedule: Q01DX005 (ip), vehicle: saline with Tween-80
[7] = dose: 50.0 mg/kg/injection, schedule: Q01DX009 (ip), vehicle: saline
[8] = dose: 100.0 mg/kg/injection, schedule: Q01DX009 (ip), vehicle: saline
[9] = dose: 200.0 mg/kg/injection, schedule: Q01DX009 (ip), vehicle: saline
[10] = dose: 50.0 mg/kg/injection, schedule: Q01DX009 (ip), vehicle: saline with Tween-80
[11] = dose: 100.0 mg/kg/injection, schedule: Q01DX009 (ip), vehicle: saline with Tween-80

Measured: T/C

Cc1ccc(S(=O)(=O)N2CC3CC(/C=C/c4ccnc5ccccc45)CC(C3)C2)cc1 (configuration not stated)
inactive: dose: 25.0 mg/kg/injection, schedule: Q01DX001 (ip), vehicle: suspension in saline 96 % of control | dose: 50.0 mg/kg/injection, schedule: Q01DX001 (ip), vehicle: suspension in saline 102 % of control | dose: 100.0 mg/kg/injection, schedule: Q01DX001 (ip), vehicle: suspension in saline 95 % of control

CC1(C)CC(C)(OC(=O)c2ccc(Cl)cc2)[N+]([O-])=N1 (configuration not stated)
inactive: dose: 12.5 mg/kg/injection, schedule: Q01DX009 (ip), vehicle: other 98 % of control | dose: 25.0 mg/kg/injection, schedule: Q01DX009 (ip), vehicle: other 98 % of control | dose: 50.0 mg/kg/injection, schedule: Q01DX009 (ip), vehicle: other 106 % of control | dose: 100.0 mg/kg/injection, schedule: Q01DX009 (ip), vehicle: other 89 % of control | dose: 200.0 mg/kg/injection, schedule: Q01DX009 (ip), vehicle: other 89 % of control

O=C(O)c1cc2ccccc2[nH]c1=O
inactive: [1] 97 % of control | [2] 97 % of control | [3] 104 % of control

C/C(=C\C(=O)c1ccccc1)N1CCN(c2ccc(F)cc2)CC1
inactive: [1] 102 % of control | [2] 105 % of control | [3] 96 % of control

O=c1cccccc1O.O=c1cccccc1O.O=c1cccccc1O.[Ru]
inactive: [1] 96 % of control | [2] 100 % of control | [3] 116 % of control

O=C1C=CC(=O)N1C(=O)NC(NC(=O)N1C(=O)C=CC1=O)c1cccc2ccccc12
inactive: [4] 100 % of control | [5] 99 % of control | [6] 90 % of control

O=C(c1ccncc1)N(CO)N(Cn1c(=O)sc2ccccc21)Cn1c(=O)sc2ccccc21
inactive: dose: 6.25 mg/kg/injection, schedule: Q01DX009 (ip), vehicle: Klucel (hydroxypropylcellulose) (HPC) 101 % of control | dose: 12.5 mg/kg/injection, schedule: Q01DX009 (ip), vehicle: Klucel (hydroxypropylcellulose) (HPC) 94 % of control | dose: 25.0 mg/kg/injection, schedule: Q01DX009 (ip), vehicle: Klucel (hydroxypropylcellulose) (HPC) 92 % of control

Cc1ccc(NC(=S)NNC(=O)CN2C(=O)c3ccccc3C2=O)cc1
inactive: dose: 12.5 mg/kg/injection, schedule: Q01DX001 (ip), vehicle: Klucel (hydroxypropylcellulose) (HPC) 93 % of control | dose: 25.0 mg/kg/injection, schedule: Q01DX001 (ip), vehicle: Klucel (hydroxypropylcellulose) (HPC) 93 % of control | dose: 50.0 mg/kg/injection, schedule: Q01DX001 (ip), vehicle: Klucel (hydroxypropylcellulose) (HPC) 89 % of control and 90 % of control

Clc1cccc(/C=C/c2ccnnc2)c1
inactive: [7] 101 % of control | [8] 86 % of control and 97 % of control | [9] 103 % of control and 96 % of control

CCCCCCNC(C)C
inactive: dose: 50.0 mg/kg/injection, schedule: Q01DX005 (ip), vehicle: saline 104 % of control | dose: 100.0 mg/kg/injection, schedule: Q01DX005 (ip), vehicle: saline 101 % of control

CCC1(C)NN=C2C(=CC=C3NNC(C)(CC)N32)n2cccc21 (configuration not stated)
inactive: [4] 102 % of control | [5] 110 % of control | [6] 119 % of control

N#Cc1cc(Br)ccc1[N+](=O)[O-]
inactive: dose: 6.25 mg/kg/injection, schedule: Q01DX009 (ip), vehicle: saline 103 % of control | dose: 12.5 mg/kg/injection, schedule: Q01DX009 (ip), vehicle: saline 101 % of control | [7] 94 % of control | [8] 90 % of control | [9] 99 % of control

CC(=O)OC1CSC(OC(C)=O)C(OC(C)=O)C1[N+](=O)[O-] (configuration not stated)
inactive: dose: 100.0 mg/kg/injection, schedule: Q04DX002 (ip), vehicle: saline 99 % of control | dose: 200.0 mg/kg/injection, schedule: Q04DX002 (ip), vehicle: saline 115 % of control

Nc1ccn(COC(COCc2ccccc2)COCc2ccccc2)c(=O)n1
inactive: dose: 60.0 mg/kg/injection, schedule: Q01DX005 (ip), vehicle: saline with Tween-80 105 % of control | dose: 120.0 mg/kg/injection, schedule: Q01DX005 (ip), vehicle: saline with Tween-80 96 % of control | dose: 240.0 mg/kg/injection, schedule: Q01DX005 (ip), vehicle: saline with Tween-80 110 % of control

NS(=O)(=O)c1ccc(N2C(=S)N(c3ccccc3)C(=Nc3ccccc3)C2=Nc2ccccc2)cc1
inactive: dose: 50.0 mg/kg/injection, schedule: Q01DX005 (ip), vehicle: Klucel + Tween-80 96 % of control | dose: 100.0 mg/kg/injection, schedule: Q01DX005 (ip), vehicle: Klucel + Tween-80 105 % of control | dose: 200.0 mg/kg/injection, schedule: Q01DX005 (ip), vehicle: Klucel + Tween-80 89 % of control

CCCCCCCCSP(SCCCCCCCC)SCCCCCCCC
inactive: [10] 113 % of control | [11] 106 % of control | [8] 96 % of control | dose: 200.0 mg/kg/injection, schedule: Q01DX009 (ip), vehicle: saline with Tween-80 103 % of control | [9] 102 % of control and 91 % of control

Cc1ccc(CNc2ccc([N+](=O)[O-])cc2)cc1
inactive: dose: 50.0 mg/kg/injection, schedule: Q04DX003 (ip), vehicle: saline with Tween-80 100 % of control | dose: 100.0 mg/kg/injection, schedule: Q04DX003 (ip), vehicle: saline with Tween-80 100 % of control | dose: 200.0 mg/kg/injection, schedule: Q04DX003 (ip), vehicle: saline with Tween-80 95 % of control

CC(C)CCc1cc(O)c(CCC(C)C)cc1O
inactive: dose: 6.25 mg/kg/injection, schedule: Q01DX009 (ip), vehicle: saline with Tween-80 88 % of control | dose: 25.0 mg/kg/injection, schedule: Q01DX009 (ip), vehicle: saline with Tween-80 109 % of control | [10] 108 % of control | [11] 114 % of control

O=c1[nH]c2n[nH]c(=S)n2c2c1CCC2
inactive: dose: 50.0 mg/kg/injection, schedule: Q04DX002 (ip), vehicle: saline with Tween-80 99 % of control | dose: 100.0 mg/kg/injection, schedule: Q04DX002 (ip), vehicle: saline with Tween-80 97 % of control | dose: 200.0 mg/kg/injection, schedule: Q04DX002 (ip), vehicle: saline with Tween-80 99 % of control
